Reference: patent US10738028B2, “Spiro three-membered ring, spiro five-membered ring peptide deformylase inhibitor and use thereof in antibacteria and anti-tumor” (priority 2016, dated 2020)
In brackets after ≈: the same amount, converted by molar mass.

Key:
Format in all cases: cell-based
[1] = tested on: HCT-116 colorectal cancer cell line; assay: CCK-8 proliferation inhibition; conditions: Homo sapiens, HCT-116, 72 h, concentration of 30 μM; 72 hours; CCK-8; read-out: HCT116 inhibition rate/%
Procedure, shortened: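 Cells seeded at 2000 cells/well, cultured overnight at 37 °C, 5% CO2, then exposed to compound (DMSO; control 1‰ DMSO) for 72 h in McCoy's 5A with 10% newborn bovine serum. Viability read with 1:10 diluted CCK-8.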

[2] = tested on: methicillin-resistant Staphylococcus aureus (MRSA); assay: MIC, two-fold agar dilution (CLSI), clinical isolates
From the text: (§1) 1. The invention adopts the two-fold agar dilution method recommended by the operating procedure of antimicrobial susceptibility testing set by American Clinical and Laboratory Standards Institute (CLSI) to determine the Minimum Inhibitory Concentration (MIC) of the test samples against the tested strains.

[3] = tested on: Enterococcus faecalis (EFA); assay: as above
From the text: as §1

[4] = tested on: methicillin-resistant Staphylococcus epidermidis (MRSE); assay: as above
From the text: as §1

[5] = tested on: methicillin-sensitive Staphylococcus aureus (MSSA); assay: as above
From the text: as §1

[6] = tested on: Moraxella catarrhalis (BCA); assay: as above
From the text: as §1

[7] = tested on: Streptococcus pneoumoniae (SPN); assay: as above
From the text: as §1

[8] = tested on: Escherichia coli (including ESBLs, non-ESBLs); assay: as above
From the text: as §1

[9] = tested on: Enterococcus faecium (EFM); assay: as above
From the text: as §1

[10] = tested on: methicillin-sensitive Staphylococcus epidermidis (MSSE); assay: as above
From the text: as §1

In the case of `CCCC[C@H](CN(O)C=O)C(=O)N1CC2(CC2)C[C@H]1C(=O)Nc1nncs1` [Example 23, (S)-5-((R)-2-((N-hydroxyformamido)methyl)hexanoyl)-N-(1,3,4-thiadiazol-2-yl)-5-azaspiro[2.4]heptane-6-carboxamide], the inhibition at 30 µM [1] was 7%, the MIC (anti-bacterial activity) ([2]; strain MRSA 15-1) was 0.25 µg/mL (≈ 0.632 µM) and the MIC (anti-bacterial activity) ([2]; strain MRSA 15-2) was 2 µg/mL (≈ 5.06 µM). It also gave an MIC (anti-bacterial activity) ([2]; strain MRSA 15-3) of 0.25 µg/mL (≈ 0.632 µM), an MIC (anti-bacterial activity) ([2]; strain MRSA 15-4) of 2 µg/mL (≈ 5.06 µM) and an MIC (anti-bacterial activity) ([3]; strain EFA 15-1) of 32 µg/mL (≈ 80.9 µM). For the same compound, the MIC (anti-bacterial activity) ([3]; strain EFA 15-2) was 32 µg/mL (≈ 80.9 µM), the MIC (anti-bacterial activity) ([3]; strain EFA 15-3) was 1 µg/mL (≈ 2.53 µM) and the MIC (anti-bacterial activity) ([3]; strain EFA 15-4) was 32 µg/mL (≈ 80.9 µM). It also gave an MIC (anti-bacterial activity) ([3]; strain EFA 15-5) of 32 µg/mL (≈ 80.9 µM), an MIC (anti-bacterial activity) ([3]; strain EFA 15-6) of 32 µg/mL (≈ 80.9 µM) and an MIC (anti-bacterial activity) ([3]; strain EFA 15-9) of 32 µg/mL (≈ 80.9 µM). The MIC (anti-bacterial activity) ([4]; strain MRSE 15-1) was 0.25 µg/mL (≈ 0.632 µM), the MIC (anti-bacterial activity) ([4]; strain MRSE 15-2) was 0.25 µg/mL (≈ 0.632 µM) and the MIC (anti-bacterial activity) ([4]; strain MRSE 15-3) was 0.25 µg/mL (≈ 0.632 µM). For the same compound, the MIC (anti-bacterial activity) ([4]; strain MRSE 15-7) was 1 µg/mL (≈ 2.53 µM), the MIC (anti-bacterial activity) ([5]; strain MSSA 15-3) was 1 µg/mL (≈ 2.53 µM) and the MIC (anti-bacterial activity) ([5]; strain MSSA 15-4) was 1 µg/mL (≈ 2.53 µM). For the same compound, the MIC (anti-bacterial activity) ([5]; strain MSSA 15-5) was 0.25 µg/mL (≈ 0.632 µM), the MIC (anti-bacterial activity) ([5]; strain MSSA 15-6) was 0.25 µg/mL (≈ 0.632 µM) and the MIC (anti-bacterial activity) ([6]; strain BCA 14-1) was 8 µg/mL (≈ 20.2 µM). The MIC (anti-bacterial activity) ([6]; strain BCA 14-4) was 4 µg/mL (≈ 10.1 µM), the MIC (anti-bacterial activity) ([6]; strain BCA 14-5) was 1 µg/mL (≈ 2.53 µM) and the MIC (anti-bacterial activity) ([6]; strain BCA 14-6) was 4 µg/mL (≈ 10.1 µM). The MIC (anti-bacterial activity) ([6]; strain BCA 14-7) was 2 µg/mL (≈ 5.06 µM), the MIC (anti-bacterial activity) ([6]; strain BCA 14-8) was 2 µg/mL (≈ 5.06 µM) and the MIC (anti-bacterial activity) ([6]; strain BCA 14-10) was 1 µg/mL (≈ 2.53 µM). For the same compound, the MIC (anti-bacterial activity) ([7]; strain SPN 16-2) was 15 µg/mL (≈ 37.9 µM), the MIC (anti-bacterial activity) ([7]; strain SPN 16-4) was 1 µg/mL (≈ 2.53 µM) and the MIC (anti-bacterial activity) ([8]; strain ECO+ 15-1) was over 32 µg/mL. For the same compound, the MIC (anti-bacterial activity) ([8]; strain ECO+ 15-2) was over 32 µg/mL, the MIC (anti-bacterial activity) ([8]; strain ECO+ 15-3) was over 32 µg/mL and the MIC (anti-bacterial activity) ([8]; strain ECO+ 15-4) was over 32 µg/mL. The MIC (anti-bacterial activity) ([8]; strain ECO− 15-1) was over 32 µg/mL, the MIC (anti-bacterial activity) ([8]; strain ECO− 15-2) was over 32 µg/mL and the MIC (anti-bacterial activity) ([8]; strain ECO− 15-3) was over 32 µg/mL. It also gave an MIC (anti-bacterial activity) ([8]; strain ECO− 15-4) of over 32 µg/mL, an MIC (anti-bacterial activity) ([9]; strain EFM 15-1) of 1 µg/mL (≈ 2.53 µM) and an MIC (anti-bacterial activity) ([9]; strain EFM 15-2) of 8 µg/mL (≈ 20.2 µM). For the same compound, the MIC (anti-bacterial activity) ([9]; strain EFM 15-3) was 0.5 µg/mL (≈ 1.26 µM), the MIC (anti-bacterial activity) ([9]; strain EFM 15-4) was 8 µg/mL (≈ 20.2 µM) and the MIC (anti-bacterial activity) ([9]; strain EFM 15-5) was 0.5 µg/mL (≈ 1.26 µM). For the same compound, the MIC (anti-bacterial activity) ([9]; strain EFM 15-6) was 8 µg/mL (≈ 20.2 µM), the MIC (anti-bacterial activity) ([10]; strain MSSE 15-3) was 0.25 µg/mL (≈ 0.632 µM) and the MIC (anti-bacterial activity) ([10]; strain MSSE 15-4) was 0.25 µg/mL (≈ 0.632 µM). The MIC (anti-bacterial activity) ([10]; strain MSSE 15-5) was 0.25 µg/mL (≈ 0.632 µM) and the MIC (anti-bacterial activity) ([10]; strain MSSE 15-6) was 0.25 µg/mL (≈ 0.632 µM).
